# Measurements as given in US20230181536A1, “ANTICANCER COMBINATION THERAPY WITH N-(1-ACRYLOYL-AZETIDIN-3-YL)-2-((1H-INDAZOL-3-YL)AMINO)METHYL)-1H-IMIDAZOLE-5-CARBOXAMIDE INHIBITOR OF KRAS-G12C” (TAIHO PHARMACEUTICAL CO., LTD., priority 2020, published 2023).
# Molecular target: T1, KRAS G12C (Homo sapiens, UniProt P01116, G12C)
# T1 construct: KRAS G12C (amino acid region: 1-169)
# Assay: Inhibitory activity on the KRAS G12C nucleotide (GDP-GTP) exchange reaction
# Type: biochemical
# Settings: Bodipy FL GDP-bound KRAS G12C 25 nM; preincubation at 25° C. for 4 hours; SOS1 100 nM, GppNHp 1 μM, reaction for 30 minutes
# Experimental: Test Example 2: Evaluation of Inhibitory Activity of Compounds on the KRAS G12C Nucleotide (GDP-GTP) Exchange Reaction
# The inhibitory activity of compounds on the exchange reaction of GDP into GppNHp in Bodipy (trademark) FL-bound KRAS G12C was examined by fluorescence measurement using human recombinant KRAS G12C and SOS1 proteins.
# For the preparation of KRAS G12C to which Bodipy FL GDP was bound, first, 50 µM KRAS G12C (amino acid region: 1-169) and 1 mM Bodipy FL GDP (Invitrogen, G22360) were incubated for 1 hour in a buffer (20 mM Tris-HCl (pH 7.5), 50 mM NaCl, 1 mM DTT) in ice in the presence of 2.5 mM EDTA. Thereafter, MgCl2 with a final concentration of 10 mM was added, and the mixture was incubated at room temperature for 30 minutes. The protein was allowed to pass through a NAP-5 column to remove free nucleotides and was used for compound evaluation.
# For the measurement of the inhibitory activity of compounds on nucleotide exchange reaction, first, the compound of the disclosure was diluted stepwise with dimethyl sulfoxide (DMSO). Subsequently, a solution of the gradually diluted compound of the disclosure in DMSO (the final concentration of DMSO: 5%) and KRAS G12C (25 nM) bound to Bodipy FL GDP were added to a reaction buffer (20 mM Tris-HCl (pH 7.5), 100 mM NaCl, 1 mM MgCl2, 2 mM DTT, 0.1% Tween20), followed by preincubation at 25° C. for 4 hours. Thereafter, Son of Sevenless Homolog 1 (SOS1, amino acid region: 564-1049) and GppNHp (GMPPNP, Jena Bioscience GmbH, NU-401-50) were added such that their final concentration was 100 nM and 1 μM respectively, followed by reaction for 30 minutes. The change in fluorescence intensity of Bodipy FL (excitation wavelength: 485 nm, fluorescence wavelength: 520 nm) immediately after the start of reaction and after 30 minutes from the start of reaction was standardized. The signal value for only DMSO was determined to be 0% inhibition, and the signal value for no addition of GppNHp was determined to be 100% inhibition. The compound concentration at which 50% inhibition is achieved was determined to be the IC50 (nM) and was calculated.
# T1 sequence (P01116 1-169 isoform P01116-2 G12C): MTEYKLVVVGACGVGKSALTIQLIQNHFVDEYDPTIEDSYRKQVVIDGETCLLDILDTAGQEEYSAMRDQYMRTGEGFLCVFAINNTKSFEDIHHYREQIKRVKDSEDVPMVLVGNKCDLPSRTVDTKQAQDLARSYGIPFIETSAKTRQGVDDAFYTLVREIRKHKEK
row,IC50,Structure (SMILES)
1,20 nM,"C=CC(=O)N1C[C@@H](CF)[C@@H](NC(=O)c2c(C)nc(CNc3n[nH]c4cc(Cl)c(C(C)(C)C)cc34)n2C)C1 [Example 66, N-((3R,4R)-1-acryloyl-4-(fluoromethyl)pyrrolidin-3-yl)-2-(((5-(tert-butyl)-6-chloro-1H-indazol-3-yl)amino)methyl)-1,4-dimethyl-1H-imidazole-5-carboxamide]"
2,24 nM,"C=CC(=O)N1CC(NC(=O)c2c(C)nc(CNc3n[nH]c4cc(Cl)c(C(C)(C)C)cc34)n2CCOC)C1 [Example 14, N-(1-acryloylazetidin-3-yl)-2-(((5-(tert-butyl)-6-chloro-1H-indazol-3-yl)amino)methyl)-1-(2-methoxyethyl)-4-methyl-1H-imidazole-5-carboxamide]"
3,142 nM,"C=CC(=O)N1CC[C@@H](N(C)C(=O)c2cnc(CNc3n[nH]c4cc(Cl)c(C(C)(C)C)cc34)n2C)C1 [Example 77, (R)-N-(1-acryloylpyrrolidin-3-yl)-2-(((5-(tert-butyl)-6-chloro-1H-indazol-3-yl)amino)methyl)-N,1-dimethyl-1H-imidazole-5-carboxamide]"
4,4 nM,"C=CC(=O)N1CC(NC(=O)c2c(Cl)nc(CNc3n[nH]c4cc(Cl)c(C(C)(C)C)cc34)n2C2CN(C(C)C)C2)C1 [Example 107, N-(1-acryloylazetidin-3-yl)-2-(((5-(tert-butyl)-6-chloro-1H-indazol-3-yl)amino)methyl)-4-chloro-1-(1-isopropylazetidin-3-yl)-1H-imidazole-5-carboxamide]"
5,14 nM,"C=CC(=O)N1CC(NC(=O)c2c(C)nc(CNc3n[nH]c4cc(C)c(C(C)(C)C)cc34)n2C)C1 [Example 41, N-(1-acryloylazetidin-3-yl)-2-(((5-(tert-butyl)-6-methyl-1H-indazol-3-yl)amino)methyl)-1,4-dimethyl-1H-imidazole-5-carboxamide]"
6,10 nM,"[2H]C([2H])(Nc1n[nH]c2cc(Cl)c(C(C)(C)C)cc12)c1nc(C)c(C(=O)NC2CN(C(=O)C=C)C2)n1C [Example 5, N-(1-acryloylazetidin-3-yl)-2-(((5-(tert-butyl)-6-chloro-1H-indazol-3-yl)amino)methyl-d2)-1,4-dimethyl-1H-imidazole-5-carboxamide]"
7,85 nM,"C=CC(=O)N1C[C@@H](NC(=O)c2c(C)nc(CNc3n[nH]c4cc(Cl)c(C(C)(C)C)cc34)n2C)[C@@H]1C (relative stereo) [Example 59, N-(trans-1-acryloyl-2-methylazetidin-3-yl)-2-(((5-(tert-butyl)-6-chloro-1H-indazol-3-yl)amino)methyl)-1,4-dimethyl-1H-imidazole-5-carboxamide]"
8,8 nM,"C=CC(=O)N1CC(NC(=O)c2c(Cl)nc(CNc3n[nH]c4cc(Cl)c(C(C)(C)C)cc34)n2C(C)C)C1 [Example 35, N-(1-acryloylazetidin-3-yl)-2-(((5-(tert-butyl)-6-chloro-1H-indazol-3-yl)amino)methyl)-4-chloro-1-isopropyl-1H-imidazole-5-carboxamide]"
9,19 nM,"[2H]C([2H])(Nc1n[nH]c2cc(Cl)c(C(C)(C)C)cc12)c1nc(C(F)F)c(C(=O)NC2CN(C(=O)C=C)C2)n1C(C)C [Example 36, N-(1-acryloylazetidin-3-yl)-2-(((5-(tert-butyl)-6-chloro-1H-indazol-3-yl)amino)methyl-d2)-4-(difluoromethyl)-1-isopropyl-1H-imidazole-5-carboxamide]"
10,301 nM,"C=CC(=O)N1C[C@H](NC(=O)c2c(C)nc(CNc3n[nH]c4cc(Cl)c(C(C)(C)C)cc34)n2C)C2(CC2)C1 [Example 54, (R)-N-(5-acryloyl-5-azaspiro[2.4]heptan-7-yl)-2-(((5-(tert-butyl)-6-chloro-1H-indazol-3-yl)amino)methyl)-1,4-dimethyl-1H-imidazole-5-carboxamide]"
11,9 nM,"C=CC(=O)N1CC(NC(=O)c2c(C)nc(CNc3n[nH]c4cc(Cl)c(C(C)(C)C)cc34)n2CCC)C1 [Example 19, N-(1-acryloylazetidin-3-yl)-2-(((5-(tert-butyl)-6-chloro-1H-indazol-3-yl)amino)methyl)-4-methyl-1-propyl-1H-imidazole-5-carboxamide]"
12,5 nM,"C=CC(=O)N1CC(NC(=O)c2c(Cl)nc(CNc3n[nH]c4cc(Cl)c(C(C)(C)C)cc34)n2[C@@H]2CCN(C3COC3)C2)C1 [Example 121, (R)-N-(1-acryloylazetidin-3-yl)-2-(((5-(tert-butyl)-6-chloro-1H-indazol-3-yl)amino)methyl)-4-chloro-1-(1-(oxetan-3-yl)pyrrolidin-3-yl)-1H-imidazole-5-carboxamide]"
13,9 nM,"C=CCN1CC[C@@H](n2c(CNc3n[nH]c4cc(Cl)c(C(C)(C)C)cc34)nc(Cl)c2C(=O)NC2CN(C(=O)C=C)C2)C1 [Example 123, (R)-N-(1-acryloylazetidin-3-yl)-1-(1-allylpyrrolidin-3-yl)-2-(((5-(tert-butyl)-6-chloro-1H-indazol-3-yl)amino)methyl)-4-chloro-1H-imidazole-5-carboxamide]"
14,1500 nM,"C=CC(=O)N1C[C@H](NC(=O)c2c(C)nc(CNc3n[nH]c4cc(Cl)c(C(C)(C)C)cc34)n2C)[C@@H](C)C1 [Example 60, N-((3R,4S)-1-acryloyl-4-methylpyrrolidin-3-yl)-2-(((5-(tert-butyl)-6-chloro-1H-indazol-3-yl)amino)methyl)-1,4-dimethyl-1H-imidazole-5-carboxamide]"
15,208 nM,"C=CC(=O)N1CC(N(C)C(=O)c2c(C)nc(CNc3n[nH]c4cc(Cl)c(C(C)(C)C)cc34)n2C)C1 [Example 49, N-(1-acryloylazetidin-3-yl)-2-(((5-(tert-butyl)-6-chloro-1H-indazol-3-yl)amino)methyl)-N,1,4-trimethyl-1H-imidazole-5-carboxamide]"
16,7 nM,"C=CC(=O)N1CC(NC(=O)c2c(Cl)nc(CNc3n[nH]c4cc(Cl)c(C(C)(C)C)cc34)n2[C@@H]2CCN(C(C)C)C2)C1 [Example 114, (R)-N-(1-acryloylazetidin-3-yl)-2-(((5-(tert-butyl)-6-chloro-1H-indazol-3-yl)amino)methyl)-4-chloro-1-(1-isopropylpyrrolidin-3-yl)-1H-imidazole-5-carboxamide]"
17,870 nM,"C=CC(=O)N1CC(NC(=O)c2cnc(CNc3n[nH]c4cc(Cl)c(CC)cc34)n2C)C1 [Example 39, N-(1-acryloylazetidin-3-yl)-2-(((6-chloro-5-ethyl-1H-indazol-3-yl)amino)methyl)-1-methyl-1H-imidazole-5-carboxamide]"
18,9 nM,"C=CC(=O)N1CC(NC(=O)c2c(C)nc(CNc3n[nH]c4cc(Cl)c(C(C)(C)C)cc34)n2C)C1 [Example 3, N-(1-acryloylazetidin-3-yl)-2-(((5-(tert-butyl)-6-chloro-1H-indazol-3-yl)amino)methyl)-1,4-dimethyl-1H-imidazole-5-carboxamide]"
19,783 nM,"C=CC(=O)N1CC(NC(=O)c2cnc(CNc3n[nH]c4cc(Cl)c(C(C)(C)C)cc34)s2)C1 [Example 8, N-(1-acryloylazetidin-3-yl)-2-(((5-(tert-butyl)-6-chloro-1H-indazol-3-yl)amino)methyl)thiazole-5-carboxamide]"
20,7 nM,"C=CC(=O)N1CC(NC(=O)c2c(C(F)F)nc(CNc3n[nH]c4cc(Cl)c(C(C)(C)C)cc34)n2C2CCN(C)C2)C1 (centres unmarked) [Example 91, N-(1-acryloylazetidin-3-yl)-2-(((5-(tert-butyl)-6-chloro-1H-indazol-3-yl)amino)methyl)-4-(difluoromethyl)-1-(1-methylpyrrolidin-3-yl)-1H-imidazole-5-carboxamide]"
21,13 nM,"C=CC(=O)N1CC(NC(=O)c2c(F)nc(CNc3n[nH]c4cc(Cl)c(C(C)(C)C)cc34)n2C(C)C)C1 [Example 34, N-(1-acryloylazetidin-3-yl)-2-(((5-(tert-butyl)-6-chloro-1H-indazol-3-yl)amino)methyl)-4-fluoro-1-isopropyl-1H-imidazole-5-carboxamide]"
22,8 nM,"C=CC(=O)N1CC(NC(=O)c2c(Br)nc(CNc3n[nH]c4cc(Cl)c(C(C)(C)C)cc34)n2C)C1 [Example 27, N-(1-acryloylazetidin-3-yl)-4-bromo-2-(((5-(tert-butyl)-6-chloro-1H-indazol-3-yl)amino)methyl)-1-methyl-1H-imidazole-5-carboxamide]"
23,7 nM,"C=CC(=O)N1CC(NC(=O)c2c(C)nc(CNc3n[nH]c4cc(Cl)c(C(C)(C)C)cc34)n2C2CC2)C1 [Example 23, N-(1-acryloylazetidin-3-yl)-2-(((5-(tert-butyl)-6-chloro-1H-indazol-3-yl)amino)methyl)-1-cyclopropyl-4-methyl-1H-imidazole-5-carboxamide]"
